Source: article PMC7300299, “Anticholinergic Drugs Interact With Neuroprotective Chaperone L-PGDS and Modulate Cytotoxicity of Aβ Amyloids” (Frontiers in Pharmacology, 2020)

Target: T1, human lipocalin-type prostaglandin D synthase (L-PGDS), wild type (Homo sapiens, UniProt P41222)
T1 construct: gene PTGDS; recombinant wild type, pNIC-CH vector, E. coli Rosetta 2 (DE3), Superdex 75 purified
T1 sequence (P41222 23-190): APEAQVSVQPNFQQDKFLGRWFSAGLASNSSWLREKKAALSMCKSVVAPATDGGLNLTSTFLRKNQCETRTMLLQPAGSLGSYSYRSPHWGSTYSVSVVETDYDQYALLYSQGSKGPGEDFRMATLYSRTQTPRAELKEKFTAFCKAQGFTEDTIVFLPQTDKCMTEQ
Assay: ITC (reverse titration, L-PGDS into drug)
Conditions: read-out: Binding affinities and thermodynamic parameters / Kd^a
From the text: ITC (reverse titration, L-PGDS into drug) on human lipocalin-type prostaglandin D synthase (L-PGDS), wild type

Structure (SMILES) | Kd [µM]
CN(C)CCC(c1ccc(Cl)cc1)c1ccccn1 (centres unmarked) [CPM, Chlorpheniramine] | 5.7 ± 0.2
O=c1n(CCCN2CCN(c3cccc(Cl)c3)CC2)nc2ccccn12 [TRD, Trazodone] | 6.5 ± 0.2
